# Laboratory results from patent publication US20240390434A1, “PROBIOTIC ENHANCERS AND USES THEREOF” (Blis Technologies Limited, priority 2021, published 2024).
# Assays:
# Assay type in all cases: cell-based
# [1] = test system: S. aureus A222; experiment: Deferred antagonism assay, producer S. salivarius K12; settings: for Zone of inhibition S. aureus A222 / Inhibitory activity of S. salivarius K12 in presence of saccharides, S. aureus A222: K12
# Experimental: (§1) 1-2 producer strain colonies were transferred from a stock plate into 900 μL of suspension solution using a fresh cotton swab. Following this, suspensions were vortexed, and a sample was inoculated onto solid culture media using a fresh cotton swab. The inoculation was a streak that runs diametrically across the agar plate in a 1.5 cm wide strip. The plate was then incubated. Following incubation all visible colonies were removed by swabbing them from the agar surface. The plates were then treated with chloroform by dispensing 2 ml of chloroform onto 4 cm×4 cm piece of cloth and sealing the inverted agar plate on top for 30 minutes. The plates were then air dried for 30 minutes following chloroforming. 1-2 indicator strain colonies were then transferred from a stock plate into complementary suspension solution. The suspensions were then vortexed, and a sample was inoculated onto the same agar surface. These samples were streaked in a perpendicular direction to the initial producer streak.
# (§2) Each indicator streak was prepared with fresh a suspension containing cells from a corresponding stock plate containing the indicator strain of interest. Indicator strains suspension samples were transferred using a fresh cotton swab. Results were measured by qualitatively reviewing the subsequent (if any) sizes of the zones of inhibition (ZOI) of indicator strain colony growth. A positive result is when there is a distinctive reduction or complete inhibition of indicator colony growth on the culture medium.
# (§3) CABCa agar plates containing various concentrations of saccharide were prepared according to the methods described in Method 1. Producer strains were transferred from stock agar plates into 900 μL THB using a fresh cotton swab. A plastic spread plater was cut to approximately 1.2 cm width and then dipped into ethanol and left to air dry to ensure sterility. A 100 μL sample of the producer strain suspension was then dispensed onto the agar surface in a straight line running diametrically across the agar surface in (approximately) 20 μL spots. The spots were spaced approximately 1.5 cm apart from each other. The plastic spreader was then used to evenly distribute the spots across the agar surface in a 1.5 cm wide strip. This step was taken to ensure an even producer streak was inoculated onto the agar surface and provided an approximate measure of the initial inoculum concentration. Separate plastic spreaders were used for samples containing different producer strains. The samples were left to soak into the agar surface until there was no visible liquid remaining on the agar surface (approximately 20 minutes). Following producer streak preparations, the deferred antagonism assay protocol was followed as per Method 2. Results were recorded by measuring the size of the zone of inhibition (ZOI) in mm.
# (§4) A dose response assay was carried out according to method 3 above, except a 1.2 cm streak was used. For the individual saccharide testing the pH of the producer streak was adjusted after the growth of producer to change the acidic conditions.
# (§5) A deferred antagonism assay was conducted using K12 or M18 raw ingredient suspended in Todd Hewitt broth (THB). This was spread as a 1.2 cm streak containing approximately 1-2×10^6 cfu down the middle of a CABCa control or CABCa galactose supplemented test plate. After 18 hrs growth at 37° C. with 5% CO2, bacterial growth was removed, and the pH of the agar in the initial streak was measured and adjusted to a pH of 6.5-7.5 using 0.5M sodium carbonate pH11 before sterilizing the agar surface using chloroform vapor. Bacterial test strains were suspended in i-THB before being swabbed across the plates perpendicular to the initial streak. Plates were incubated for a further 18 hrs incubation at 37° C. with 5% CO2 before measuring (mm) any zones of inhibition for each test strain, […]
# [2] = test system: S. pneumoniae D39; experiment: as above; settings: for Zone of inhibition S. pneumoniae D39: K12
# Experimental: as §1, §2, §3, §4, §5
# [3] = test system: S. saprophyticus ATCC 15305; experiment: as above; settings: for Zone of inhibition S. saprophyticus ATCC 15305 / Inhibitory activity of S. salivarius K12 in presence of saccharides, S. saprophyticus ATCC 15305: K12
# Experimental: as §1, §2, §3, §4, §5
# [4] = test system: M. catarrhalis TW1; experiment: Deferred antagonism assay, producer S. salivarius M18
# Experimental: as §1, §2, §3, §4
# [5] = test system: L. lactis T-21; experiment: Dose response deferred antagonism assay, producer M18; settings: 0.1% (w/v) raffinose
# [6] = test system: pathogens implicated in the ENT and Skin infections; experiment: Deferred antagonism assay with other S. salivarius producer strains
# Experimental: Method: Preparation of solid culture media—CABCa agar plates were prepared with or without either 2.5% w/w raffinose or 0.5% w/w galactose by the addition of 0.5% (w/v) calcium carbonate to solid CAB agar in bottles and then melted by autoclaving at 110° C. for 10 mins. Once cooled, filter sterilised solutions of the saccharides or distilled water were added and mixed and then 20 ml pipetted into petri dishes.
# Preparing S. salivarius producer suspension, about 6 colonies of each S. salivarius strain were added into separate tubes containing 1 ml THB and mixed well.
# Deferred antagonism assay—100 μl of S. salivarius producer suspensions was dispensed onto CABCa plates supplemented with or without raffinose or galactose as droplets in a vertical line down the middle of the test plate. This suspension was then spread as 1.2 cm streak down the middle of the plate using a cutdown plastic spreader. Plates were incubated for 18 hours at 37° C., 5% CO2 in air.
# After incubation, the bacterial growth was then removed from the agar plate using a sterile cotton swab. The pH of the producer streak was then adjusted by placing a 1 cm wide strip of filter paper soaked in 0.5M sodium carbonate pH 11 onto the agar plate to buffer the acid and adjust the pH up to around pH 6.5-7.5.
# Plates were surface sterilised with chloroform vapour for 30 minutes, followed by air drying for 30 minutes.
# Bacterial indicator suspensions were prepared by adding 3-9 colonies (depending on the size) of each strain into separate tubes containing 3 ml THB. These suspensions were then swabbed across the agar plate perpendicular to the producer streak and then the agar plate was incubated for a further 18 hours at 37° C., 5% CO2 in air.
smiles,measurement,setting,value
"OC[C@H]1O[C@H](OC[C@H]2O[C@H](O[C@]3(CO)O[C@H](CO)[C@@H](O)[C@@H]3O)[C@H](O)[C@@H](O)[C@@H]2O)[C@H](O)[C@@H](O)[C@H]1O [Raffinose, D-(+) Raffinose pentahydrate]",sensitivity of S. aureus A222 to K12,"[1]; 1.25, 2.5, 5 and 10% w/v raffinose added",sensitive
same,Zone of inhibition S. aureus A222,[1]; Raffinose 1.7% wt,12 mm
same,Zone of inhibition S. aureus A222,"[1]; Raffinose 1.7% wt, pH adjusted",8 mm
same,Zone of inhibition S. aureus A222,[1]; Raffinose 2.5% wt,15 mm
same,Zone of inhibition S. aureus A222,"[1]; Raffinose 2.5% wt, pH adjusted",15 mm
same,Zone of inhibition S. aureus A222,[1]; Raffinose 3.3% wt,16 mm
same,Zone of inhibition S. aureus A222,"[1]; Raffinose 3.3% wt, pH adjusted",13 mm
same,Zone of inhibition S. aureus A222,[1]; Raffinose 5% wt,14 mm
same,Zone of inhibition S. aureus A222,"[1]; Raffinose 5% wt, pH adjusted",14 mm
same,Zone of inhibition S. aureus A222,[1]; Raffinose 10% wt,13 mm
same,Zone of inhibition S. aureus A222,"[1]; Raffinose 10% wt, pH adjusted",13 mm
same,"Inhibitory activity of S. salivarius K12 in presence of saccharides, S. aureus A222",[1]; saccharide 3.3% w/v,✓
same,"Inhibitory activity of S. salivarius K12 in presence of saccharides, S. aureus A222",[1]; saccharide range 2.5%-10% w/v,✓
same,inhibition by K12 of S. pneumoniae,[2]; 0.5 to 10% w/v raffinose,increase in inhibition
same,Zone of inhibition S. pneumoniae D39,[2]; Raffinose 1.7% wt,5 mm
same,Zone of inhibition S. pneumoniae D39,"[2]; Raffinose 1.7% wt, pH adjusted",10 mm
same,Zone of inhibition S. pneumoniae D39,[2]; Raffinose 2.5% wt,8 mm
same,Zone of inhibition S. pneumoniae D39,"[2]; Raffinose 2.5% wt, pH adjusted",9 mm
same,Zone of inhibition S. pneumoniae D39,[2]; Raffinose 3.3% wt,10 mm
same,Zone of inhibition S. pneumoniae D39,"[2]; Raffinose 3.3% wt, pH adjusted",7 mm
same,Zone of inhibition S. pneumoniae D39,[2]; Raffinose 5% wt,8 mm
same,Zone of inhibition S. pneumoniae D39,"[2]; Raffinose 5% wt, pH adjusted",13 mm
same,Zone of inhibition S. pneumoniae D39,[2]; Raffinose 10% wt,10 mm
same,Zone of inhibition S. pneumoniae D39,"[2]; Raffinose 10% wt, pH adjusted",10 mm
same,sensitivity of S. saprophyticus ATCC 15305 to K12,"[3]; 2.5, 5 and 10% w/v raffinose added",sensitive
same,Zone of inhibition S. saprophyticus ATCC 15305,[3]; Raffinose 1.7% wt,7 mm
same,Zone of inhibition S. saprophyticus ATCC 15305,"[3]; Raffinose 1.7% wt, pH adjusted",0 mm
same,Zone of inhibition S. saprophyticus ATCC 15305,[3]; Raffinose 2.5% wt,12 mm
same,Zone of inhibition S. saprophyticus ATCC 15305,"[3]; Raffinose 2.5% wt, pH adjusted",8 mm
same,Zone of inhibition S. saprophyticus ATCC 15305,[3]; Raffinose 3.3% wt,12 mm
same,Zone of inhibition S. saprophyticus ATCC 15305,"[3]; Raffinose 3.3% wt, pH adjusted",11 mm
same,Zone of inhibition S. saprophyticus ATCC 15305,[3]; Raffinose 5% wt,13 mm
same,Zone of inhibition S. saprophyticus ATCC 15305,"[3]; Raffinose 5% wt, pH adjusted",12 mm
same,Zone of inhibition S. saprophyticus ATCC 15305,[3]; Raffinose 10% wt,12 mm
same,Zone of inhibition S. saprophyticus ATCC 15305,"[3]; Raffinose 10% wt, pH adjusted",11 mm
same,"Inhibitory activity of S. salivarius K12 in presence of saccharides, S. saprophyticus ATCC 15305",[3]; saccharide 3.3% w/v,✓
same,"Inhibitory activity of S. salivarius K12 in presence of saccharides, S. saprophyticus ATCC 15305",[3]; saccharide range 2.5%-10% w/v,✓
same,change in zone of inhibition size M. catarrhalis TW1,[4]; 1.5% (w/v) raffinose,31 mm
same,Zone of inhibition M. catarrhalis TW1,[4]; Raffinose 1.7% wt,7 mm
same,Zone of inhibition M. catarrhalis TW1,"[4]; Raffinose 1.7% wt, pH adjusted",0 mm
same,Zone of inhibition M. catarrhalis TW1,[4]; Raffinose 2.5% wt,17 mm
same,Zone of inhibition M. catarrhalis TW1,"[4]; Raffinose 2.5% wt, pH adjusted",0 mm
same,Zone of inhibition M. catarrhalis TW1,[4]; Raffinose 3.3% wt,0 mm
same,Zone of inhibition M. catarrhalis TW1,"[4]; Raffinose 3.3% wt, pH adjusted",0 mm
same,Zone of inhibition M. catarrhalis TW1,[4]; Raffinose 5% wt,15 mm
same,Zone of inhibition M. catarrhalis TW1,"[4]; Raffinose 5% wt, pH adjusted",0 mm
same,Zone of inhibition M. catarrhalis TW1,[4]; Raffinose 10% wt,0 mm
same,Zone of inhibition M. catarrhalis TW1,"[4]; Raffinose 10% wt, pH adjusted",0 mm
same,L. lactis ZOI size,[5],20 mm
same,"induction of inhibitory effect in other S. salivarius strains, exception ATCC 7073","[6]; 2.5% w/w raffinose, compared with K12 and M18",does not induce same inhibitory effect
same,antimicrobial activity of S. salivarius strain ATCC 7073,[6]; supplemented with 2.5% w/w raffinose,antimicrobial activity
